Laboratory results reported in patent US11730720B2, “ALK5 inhibitors” (THERAVANCE BIOPHARMA R&D IP, LLC, priority 2018, dated 2023).

What was measured:
[1] = target: T1, recombinant human ALK5 (TGF-βR1) protein (Homo sapiens, UniProt P36897); assay: Biochemical ALK5 (TGF-βR1) assay to measure pKi (LANCE Ultra ULight kinase assay); conditions: apparent pKi, converted from pIC50 using the Cheng-Prusoff equation
T1 construct: purchased Life Technologies PR9075A
T1 sequence (P36897 34-503): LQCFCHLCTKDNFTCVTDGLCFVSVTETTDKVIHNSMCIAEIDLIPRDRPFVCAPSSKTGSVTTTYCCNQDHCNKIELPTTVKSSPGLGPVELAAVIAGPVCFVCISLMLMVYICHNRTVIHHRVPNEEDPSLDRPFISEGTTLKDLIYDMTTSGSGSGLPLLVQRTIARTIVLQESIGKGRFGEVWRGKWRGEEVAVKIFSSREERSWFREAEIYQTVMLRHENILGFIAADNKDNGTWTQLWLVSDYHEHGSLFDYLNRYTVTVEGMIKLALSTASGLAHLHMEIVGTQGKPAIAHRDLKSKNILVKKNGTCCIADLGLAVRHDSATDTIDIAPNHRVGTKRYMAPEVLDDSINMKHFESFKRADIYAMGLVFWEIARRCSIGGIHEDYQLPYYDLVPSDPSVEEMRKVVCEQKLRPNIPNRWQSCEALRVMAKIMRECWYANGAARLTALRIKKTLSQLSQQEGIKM
Method in brief: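 TR-FRET kinase format: compound dose range 10 μM–25 pM equilibrated 60 min with human ALK5 and ULight-labelled topoisomerase 2α peptide in HEPES/MgCl2 buffer pH 7.5 with DTT. Reaction started with ATP (125 μM stock, 5× final), 60 min at 37° C, stopped with EDTA/Eu-anti-phospho antibody; pKi derived from pIC50 via Cheng-Prusoff.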

[2] = system: TGF-β-stimulated SMAD3 phosphorylation in BEAS-2B cells; assay: Cellular ALK5 potency assay, inhibition of TGF-β stimulated pSMAD3 formation in BEAS-2B cells; assay type: cell-based; conditions: Homo sapiens, inhibition of TGF-β (10 ng/mL) stimulated pSMAD3 formation, 1 hour compound incubation, read-out: BEAS2B pIC50 (converted)
Method in brief: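 Phospho-SMAD3 was quantified by AlphaLISA in lysates of human lung epithelial BEAS-2B cells. Compound was added 1 h (37 °C, HEPES/BSA-supplemented HBSS) before a 30 min challenge with 10 ng/mL TGF-β. Values are pIC50 relative to stimulated cells without compound.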

Structure (SMILES) | Ki [1] | IC50 [2]
Cc1nn2c(c1-c1cnc3ccc(-c4c[nH]nc4-c4cc(Cl)ccc4F)nc3c1)NCCC2 [Compound 1-120, 2-[3-(5-chloro-2-fluoro-phenyl)-1H-pyrazol-4-yl]-7-(2-methyl-4,5,6,7-tetrahydropyrazolo[1,5-a]pyrimidin-3-yl)-1,5-naphthyridine] | 0.398 to 3.16 nM | 25.1 to 158 nM
Fc1ccc(Cl)cc1-c1n[nH]cc1-c1ccc2ncc(-c3[nH]nc4c3CCNC4)cc2n1 [Compound 1-121, 2-[3-(5-chloro-2-fluoro-phenyl)-1H-pyrazol-4-yl]-7-(4,5,6,7-tetrahydro-2H-pyrazolo[3,4-c]pyridin-3-yl)-1,5-naphthyridine] | 0.0398 to 0.316 nM | 25.1 to 158 nM
CC1CN(c2cnc3ccc(-c4c[nH]nc4-c4cc(Cl)ccc4F)nc3c2)CC(C)N1CCN (stereo not drawn) [Compound 1-122, 2-[4-[6-[3-(5-chloro-2-fluoro-phenyl)-1H-pyrazol-4-yl]-1,5-naphthyridin-3-yl]-2,6-dimethyl-piperazin-1-yl]ethanamine] | 0.0398 to 0.316 nM | 25.1 to 158 nM
Fc1ccc(Cl)cc1-c1n[nH]cc1-c1ccc2ncc(-c3nnn4c3NCC4)cc2n1 [Compound 1-123, 2-[3-(5-chloro-2-fluoro-phenyl)-1H-pyrazol-4-yl]-7-(5,6-dihydro-4H-imidazo[1,2-c]triazol-3-yl)-1,5-naphthyridine] | 0.0398 to 0.316 nM | 25.1 to 158 nM
Fc1ccc(Cl)cc1-c1n[nH]cc1-c1ccc2ncc(-c3cnc4n3CCCN4)cc2n1 [Compound 1-124, 2-[3-(5-chloro-2-fluoro-phenyl)-1H-pyrazol-4-yl]-7-(5,6,7,8-tetrahydroimidazo[1,2-a]pyrimidin-3-yl)-1,5-naphthyridine] | 0.0398 to 0.316 nM | 25.1 to 158 nM
Fc1ccc(Cl)cc1-c1n[nH]cc1-c1ccc2ncc(-c3[nH]nc4c3CCN4)cc2n1 [Compound 1-125, 2-[3-(5-chloro-2-fluoro-phenyl)-1H-pyrazol-4-yl]-7-(2,4,5,6-tetrahydropyrrolo[2,3-c]pyrazol-3-yl)-1,5-naphthyridine] | 0.0398 to 0.316 nM | 25.1 to 158 nM
COC(=O)N1CCc2nnc(-c3cnc4ccc(-c5c[nH]nc5-c5cc(Cl)ccc5F)nc4c3)cc2C1 [Compound 1-126, methyl 3-[6-[3-(5-chloro-2-fluoro-phenyl)-1H-pyrazol-4-yl]-1,5-naphthyridin-3-yl]-7,8-dihydro-5H-pyrido[4,3-c]pyridazine-6-carboxylate] | 0.0398 to 0.316 nM | 25.1 to 158 nM
CCOC(=O)CNCCn1cc(-c2cnc3ccc(-c4c[nH]nc4-c4cc(Cl)ccc4F)nc3c2)cn1 [Compound 1-127, ethyl 2-[2-[4-[6-[3-(5-chloro-2-fluoro-phenyl)-1H-pyrazol-4-yl]-1,5-naphthyridin-3-yl]pyrazol-1-yl]ethylamino]acetate] | ≤ 0.0316 nM | 200 to 1260 nM
Fc1ccc(Cl)cc1-c1n[nH]cc1-c1ccc2ncc(N3CCn4nc(N5CCNCC5)cc4C3)cc2n1 [Compound 1-128, 2-[3-(5-chloro-2-fluoro-phenyl)-1H-pyrazol-4-yl]-7-(2-piperazin-1-yl-6,7-dihydro-4H-pyrazolo[1,5-a]pyrazin-5-yl)-1,5-naphthyridine] | 0.0398 to 0.316 nM | 200 to 1260 nM
Fc1ccc(Cl)cc1-c1n[nH]cc1-c1ccc2ncc(-c3ncc4n3CCN4)cc2n1 [Compound 1-129, 2-[3-(5-chloro-2-fluoro-phenyl)-1H-pyrazol-4-yl]-7-(2,3-dihydro-1H-imidazo[1,2-c]imidazol-5-yl)-1,5-naphthyridine] | 0.398 to 3.16 nM | 200 to 1260 nM
O=C(O)[C@H]1CN(c2cnc3ccc(-c4c[nH]nc4-c4cc(Cl)ccc4F)nc3c2)CCN1 [Compound 1-130, (2R)-4-[6-[3-(5-chloro-2-fluoro-phenyl)-1H-pyrazol-4-yl]-1,5-naphthyridin-3-yl]piperazine-2-carboxylic acid] | 0.398 to 3.16 nM | 200 to 1260 nM

Now from value to compound, other results behind:

Ki [1] | Structure (SMILES) | IC50 [2]
0.0398 to 0.316 nM | CNCCn1cc(-c2cnc3ccc(-c4c[nH]nc4-c4cc(Cl)ccc4F)nc3c2)nn1 [Compound 1-131, 2-[4-[6-[3-(5-chloro-2-fluoro-phenyl)-1H-pyrazol-4-yl]-1,5-naphthyridin-3-yl]triazol-1-yl]-N-methyl-ethanamine] | ≤ 20 nM
0.0398 to 0.316 nM | O=C(NCCN1CCCC1)[C@H]1CN(c2cnc3ccc(-c4c[nH]nc4-c4cc(Cl)ccc4F)nc3c2)CCN1 [Compound 1-132, (2R)-4-[6-[3-(5-chloro-2-fluoro-phenyl)-1H-pyrazol-4-yl]-1,5-naphthyridin-3-yl]-N-(2-pyrrolidin-1-ylethyl)piperazine-2-carboxamide] | 200 to 1260 nM
0.0398 to 0.316 nM | O=C(O)C1CN(CCNc2cnc3ccc(-c4c[nH]nc4-c4cc(Cl)ccc4F)nc3c2)CCN1 (stereo not drawn) [Compound 1-133, 4-[2-[[6-[3-(5-chloro-2-fluoro-phenyl)-1H-pyrazol-4-yl]-1,5-naphthyridin-3-yl]amino]ethyl]piperazine-2-carboxylic acid] | 200 to 1260 nM
0.398 to 3.16 nM | COC(=O)[C@H]1CN(c2cnc3ccc(-c4c[nH]nc4-c4cc(Cl)ccc4F)nc3c2)CCN1CCN [Compound 1-134, methyl (2R)-1-(2-aminoethyl)-4-[6-[3-(5-chloro-2-fluoro-phenyl)-1H-pyrazol-4-yl]-1,5-naphthyridin-3-yl]piperazine-2-carboxylate] | 25.1 to 158 nM
0.0398 to 0.316 nM | NC1CCN(c2cnc3ccc(-c4c[nH]nc4-c4cc(Cl)ccc4F)nc3c2)CC1 [Compound 1-135, 1-[6-[3-(5-chloro-2-fluoro-phenyl)-1H-pyrazol-4-yl]-1,5-naphthyridin-3-yl]piperidin-4-amine] | 25.1 to 158 nM
0.0398 to 0.316 nM | COC(=O)CC1CN(c2cnc3ccc(-c4c[nH]nc4-c4cc(Cl)ccc4F)nc3c2)CCN1 (stereo not drawn) [Compound 1-136, methyl 2-[4-[6-[3-(5-chloro-2-fluoro-phenyl)-1H-pyrazol-4-yl]-1,5-naphthyridin-3-yl]piperazin-2-yl]acetate] | ≤ 20 nM
0.0398 to 0.316 nM | CN1CCN(c2ccc(Nc3cnc4ccc(-c5nc[nH]c5-c5cc(Cl)ccc5F)nc4c3)nc2)CC1 [Compound 2-1, 6-(5-(5-chloro-2-fluorophenyl)-1H-imidazol-4-yl)-N-(5-(4-methylpiperazin-1-yl)pyridin-2-yl)-1,5-naphthyridin-3-amine] | 25.1 to 158 nM
0.0398 to 0.316 nM | CC(C)N1CCN(CCNc2cnc3ccc(-c4nc[nH]c4-c4cc(Cl)ccc4F)nc3c2)CC1 [Compound 2-2, 6-[5-(5-chloro-2-fluoro-phenyl)-1H-imidazol-4-yl]-N-[2-(4-isopropylpiperazin-1-yl)ethyl]-1,5-naphthyridin-3-amine] | 25.1 to 158 nM
0.0398 to 0.316 nM | CC1(C)CCCN1CCNc1cnc2ccc(-c3nc[nH]c3-c3cc(Cl)ccc3F)nc2c1 [Compound 2-3, 6-[5-(5-chloro-2-fluoro-phenyl)-1H-imidazol-4-yl]-N-[2-(2,2-dimethylpyrrolidin-1-yl)ethyl]-1,5-naphthyridin-3-amine] | 25.1 to 158 nM
0.0398 to 0.316 nM | Fc1ccc(Cl)cc1-c1[nH]cnc1-c1ccc2ncc(Nc3ccc(N4CCNCC4)cn3)cc2n1 [Compound 2-4, 6-[5-(5-chloro-2-fluoro-phenyl)-1H-imidazol-4-yl]-N-(5-piperazin-1-yl-2-pyridyl)-1,5-naphthyridin-3-amine] | 25.1 to 158 nM
